The values below come from ChEMBL document CHEMBL5729418, “Compounds and methods useful in the treatment of a PRMT5-mediated disorder” (2022).

The assay has as its target PRMT5/MEP50 complex (Homo sapiens, UniProt O14744). As to the kind of experiment: Chemiluminescent Assay: A PRMT5 chemiluminescent assay was used to measure the IC50 activity of PRMT5 of the compounds of Examples 1A to 7 above. Biotinylated histone peptides were synthesized and attached to 384-well plates. Compound serial dilutions were performed and added to the assay plate. Histone H4 monomethyl R3 antibody was obtained from Abcam. A master mix for each well was prepared and human PRMT5/MEP50 (expressed in HEK293 cells) diluted in assay buffer to a concentration of 5 ng/μL. The reaction was incubated and slowly rotated for 60 minutes at the point of PRMT5/MEP50 addition. The supernatant from the wells was removed and blocking buffer was added to each well and rotated for 10 minutes. The primary antibody was diluted and added to every well for 60 minutes, before it was removed and the wells washed. The horse raddish peroxidase (HRP)-coupled secondary antibody was diluted and added to each well with an incubation time of 30 minutes. The HRP chemiluminescent substrate was added to every well. The plate was read on a Flourstar Omega BMG Labtech instrument (Ortenberg, Germany) and the analysis of IC50 was performed using the Flourstar Omega BMG Labtech software. The class given is cell-based.

One may read the IC50 as the concentration that inhibits the measured activity by half. Read a high IC50 as lower potency.

PRMT5/MEP50 complex, sequence (O14744 whole entry): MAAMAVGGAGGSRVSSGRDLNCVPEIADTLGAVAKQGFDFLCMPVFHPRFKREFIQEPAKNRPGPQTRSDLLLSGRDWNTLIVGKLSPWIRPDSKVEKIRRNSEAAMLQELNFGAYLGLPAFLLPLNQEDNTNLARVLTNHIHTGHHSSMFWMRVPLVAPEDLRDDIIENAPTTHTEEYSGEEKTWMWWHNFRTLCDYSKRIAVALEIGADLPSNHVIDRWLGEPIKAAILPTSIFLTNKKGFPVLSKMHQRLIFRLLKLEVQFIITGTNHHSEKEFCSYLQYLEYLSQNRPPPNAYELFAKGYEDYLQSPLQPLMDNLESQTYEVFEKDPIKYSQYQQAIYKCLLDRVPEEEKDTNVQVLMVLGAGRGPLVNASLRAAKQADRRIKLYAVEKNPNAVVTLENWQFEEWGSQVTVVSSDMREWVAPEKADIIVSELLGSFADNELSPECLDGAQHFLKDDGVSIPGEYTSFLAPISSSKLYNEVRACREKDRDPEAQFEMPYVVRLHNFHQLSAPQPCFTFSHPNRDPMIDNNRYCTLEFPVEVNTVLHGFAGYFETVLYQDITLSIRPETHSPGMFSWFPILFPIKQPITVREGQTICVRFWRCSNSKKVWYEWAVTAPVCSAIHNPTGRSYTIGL
PRMT5/MEP50 complex, sequence (Q9BQA1 whole entry, further chain): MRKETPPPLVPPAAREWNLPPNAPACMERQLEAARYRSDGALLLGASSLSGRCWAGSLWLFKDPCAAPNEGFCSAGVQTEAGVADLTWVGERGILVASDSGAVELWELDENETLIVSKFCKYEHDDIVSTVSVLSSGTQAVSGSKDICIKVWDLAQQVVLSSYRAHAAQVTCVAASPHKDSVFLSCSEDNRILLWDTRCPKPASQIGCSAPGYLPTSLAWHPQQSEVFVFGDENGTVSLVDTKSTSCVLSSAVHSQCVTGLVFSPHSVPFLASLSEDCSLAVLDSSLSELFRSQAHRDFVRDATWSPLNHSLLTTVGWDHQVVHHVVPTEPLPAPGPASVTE

For `O=C(OCC(O)CN1CCc2ccccc2C1)N1CCCC(c2ccccc2)C1` (stereo unspecified), the IC50 came out at 75 nM.
